According to patent publication US20070010670A1, “Nitrogen-containing fused ring compounds and use thereof” (Japan Tobacco Inc., priority 2004, published 2007):

What was measured:
CYP2C9 = biological target: T1, CYP2C9 (Homo sapiens, UniProt P11712); assay: CYP inhibitory test using human liver microsome; assay type: in vitro ADME; settings: model substrate diclofenac, 37° C. 10 min, read-out: CYP2C9 inhibition IC50
T1 construct: Human liver microsome (20 mg protein/mL, 5 μL, Xenotech LLC, purchased from Lenexa KS); tissue Xenotech LLC; host or cells: human liver microsome
Experimental: Human liver microsome (20 mg protein/mL, 5 μL, Xenotech LLC, purchased from Lenexa KS) was suspended in 100 mM potassium phosphate buffer (70 μL, pH 7.4), mixed with a solution (0.5 μL) of the Example compound dissolved in DMSO and preincubated at 37° C. for 5 min. NADPH producing system coenzyme solution (β-nicotinamide adenine dinucleotide phosphate: 5.2 mM, D-glucose-6-phosphate: 13.2 mM, magnesium chloride: 13.2 mM, glucose-6-phosphate dehydrogenase: 1.8 U/mL) 25 μL, and a model substrate (CYP3A4: midazolam 1 mM, CYP2D6: bufuralol 1 mM, CYP2C9: diclofenac 2 mM) 0.5 μL dissolved in DMSO were added to start the reaction. After incubation at 37° C. for 10 min., acetonitrile (200 μL) containing an internal standard substance (propranolol 1 μM) was added and the mixture was centrifuged (room temperature, 3000 rpm, 20 min). The amount of the metabolite produced from each model substrate in the supernatant was measured by high performance liquid chromatography/mass spectrometry (LC/MS/MS) and each CYP enzyme activity was determined. The concentration showing 50% inhibition (IC50) was calculated relative to the enzyme activity without addition of Example compound (DMSO 0.5 μL added) as 100%.

URAT1 [1] = biological target: T2, URAT1 (Homo sapiens, UniProt Q96S37); assay: Uric acid transport inhibitory test using human URAT1-expressing cells; assay type: cell-based; set-up: Human URAT1 full length cDNA was subcloned to expression vector pcDNA3.1; expressed in transfected cells; host or cells: HEK293 cells (pcDNA3.1, geneticin-selected); settings: human URAT1 expressing HEK293 cells, 14C-labeled uric acid uptake 5 min, room temperature; read-out: hURAT1 (IC50, concentration necessary for inhibiting the uric acid transport rate by 50%)
T2 sequence (Q96S37 1-553): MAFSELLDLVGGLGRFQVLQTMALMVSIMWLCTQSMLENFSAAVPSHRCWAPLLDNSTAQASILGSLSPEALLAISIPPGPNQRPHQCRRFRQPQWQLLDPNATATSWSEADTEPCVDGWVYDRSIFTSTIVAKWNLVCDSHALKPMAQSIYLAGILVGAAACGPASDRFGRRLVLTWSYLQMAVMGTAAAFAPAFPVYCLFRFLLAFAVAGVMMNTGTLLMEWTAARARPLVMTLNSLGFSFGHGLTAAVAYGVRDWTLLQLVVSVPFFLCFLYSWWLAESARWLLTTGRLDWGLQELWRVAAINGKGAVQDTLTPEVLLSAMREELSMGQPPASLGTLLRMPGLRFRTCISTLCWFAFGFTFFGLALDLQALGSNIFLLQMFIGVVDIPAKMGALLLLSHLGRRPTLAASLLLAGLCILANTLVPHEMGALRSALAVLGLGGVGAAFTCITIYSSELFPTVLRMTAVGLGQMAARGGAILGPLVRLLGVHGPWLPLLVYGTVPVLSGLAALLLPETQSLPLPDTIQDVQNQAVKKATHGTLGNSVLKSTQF
Source text: Human URAT1 full length cDNA was subcloned to expression vector pcDNA3.1 and human URAT1 gene was transfected into human embryonic kidney derived cell line (HEK293 cells) by liposome method using Lipofectamine2000. Simultaneously, HEK293 cells transfected with expression vector pcDNA3.1 alone (hereinafter mock cells) were also produced. HEK293 cells expressing human URAT1 gene or mock cells were selected with geneticin resistance as an index. The functional expression of human URAT1 gene was confirmed by a method similar to the following method, using transport of uric acid labeled with ^14C into the cells as an index.
Human URAT1 expressing HEK293 cells or mock cells were cultured in Dulbecco's modified Eagle's MEM medium (high glucose) containing 10% fetal bovine serum, 0.5 mg/mL geneticin sulfate, 100 units/mL penicillin and 100 μg/mL streptomycin under the conditions of 37° C. and 5% CO2 in an incubator. The cells were plated in a 96 well plate (poly-D-Lysine coated) at 1×10^5 cells/well and the following uric acid transport inhibitory test was performed 24 hr later. This test was performed at room temperature.
After the medium was removed by aspiration from each well, the cells were washed once with Hank's Balanced Salt Solution (HBSS) and preincubated with HBSS ([…]) for 5 min. HBSS was aspirated and an assay buffer (wherein NaCl in the above-mentioned HBSS had been substituted with Na-gluconate) containing various concentrations of the Example compound and a radioactive ligand (uric acid labeled with 14C; final concentration […]) was added to each well at […] and an uptake reaction was carried out for 5 min. After the reaction, the cells were washed twice with ice-cold HBSS ([…]), and Microscin ti TM 20 (PerkinElmer) was added at […]. The cells were lysed by stirring and the radioactivity of each well was measured in a liquid scintillation counter (TOP COUNT, Packard).
The uric acid transport rate (%) of the Example compound at each concentration was calculated relative to the radioactivity (difference in radioactivity between human URAT1 expressing HEK293 cells and mock cells without addition of Example compound (DMSO addition)) showing URAT1 specific uric acid transport as 100%, and the concentration (IC50) of the Example compound necessary for inhibiting the uric acid transport rate by 50% was determined. In Table-Table , “+++” means IC50 value of less than 100 nM, “++” means IC50 value of 100 nM to less than 1000 nM, and “+” means IC50 value of 1000 nM to less than 3000 nM.

CYP3A4 = CYP3A4 (Homo sapiens, UniProt P08684); settings: cited from earlier work
CYP2C8 = biological target: T3, CYP2C8 (Homo sapiens, UniProt P10632); settings: cited from earlier work
T3 sequence (P10632 1-490): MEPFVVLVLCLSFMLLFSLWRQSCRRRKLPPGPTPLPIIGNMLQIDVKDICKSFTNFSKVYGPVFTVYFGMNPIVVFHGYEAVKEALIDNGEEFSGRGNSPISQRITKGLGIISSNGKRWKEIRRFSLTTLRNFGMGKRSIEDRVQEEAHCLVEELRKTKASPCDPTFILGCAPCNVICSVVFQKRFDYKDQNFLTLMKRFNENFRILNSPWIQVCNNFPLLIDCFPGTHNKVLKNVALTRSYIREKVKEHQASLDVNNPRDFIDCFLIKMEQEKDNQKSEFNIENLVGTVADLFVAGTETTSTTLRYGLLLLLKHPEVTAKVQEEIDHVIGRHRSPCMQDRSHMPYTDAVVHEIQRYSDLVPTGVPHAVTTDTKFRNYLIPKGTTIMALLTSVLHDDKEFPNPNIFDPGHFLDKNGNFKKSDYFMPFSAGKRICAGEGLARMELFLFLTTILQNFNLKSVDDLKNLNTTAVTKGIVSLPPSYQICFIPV

CYP2C19 = CYP2C19 (Homo sapiens, UniProt P33261); settings: cited from earlier work
URAT1 [2] = biological target: T2, URAT1; set-up: host or cells: Xenopus laevis oocyte expression system; settings: Xenopus laevis oocyte expression system; cited from earlier work

T1 sequence (P11712 whole entry): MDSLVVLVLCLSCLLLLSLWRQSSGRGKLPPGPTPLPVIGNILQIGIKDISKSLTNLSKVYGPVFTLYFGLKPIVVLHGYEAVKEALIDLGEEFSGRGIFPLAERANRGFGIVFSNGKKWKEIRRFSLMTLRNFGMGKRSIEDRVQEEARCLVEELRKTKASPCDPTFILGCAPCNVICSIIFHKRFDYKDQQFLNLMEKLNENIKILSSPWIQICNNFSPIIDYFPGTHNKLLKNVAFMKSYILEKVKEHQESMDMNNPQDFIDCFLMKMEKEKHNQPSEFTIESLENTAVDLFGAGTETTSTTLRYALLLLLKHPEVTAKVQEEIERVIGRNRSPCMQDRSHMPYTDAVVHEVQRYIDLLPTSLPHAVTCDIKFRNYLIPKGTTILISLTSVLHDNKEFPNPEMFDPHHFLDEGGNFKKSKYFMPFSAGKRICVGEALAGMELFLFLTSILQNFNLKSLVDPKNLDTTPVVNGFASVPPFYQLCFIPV
Sequence of CYP3A4 (P08684 whole entry): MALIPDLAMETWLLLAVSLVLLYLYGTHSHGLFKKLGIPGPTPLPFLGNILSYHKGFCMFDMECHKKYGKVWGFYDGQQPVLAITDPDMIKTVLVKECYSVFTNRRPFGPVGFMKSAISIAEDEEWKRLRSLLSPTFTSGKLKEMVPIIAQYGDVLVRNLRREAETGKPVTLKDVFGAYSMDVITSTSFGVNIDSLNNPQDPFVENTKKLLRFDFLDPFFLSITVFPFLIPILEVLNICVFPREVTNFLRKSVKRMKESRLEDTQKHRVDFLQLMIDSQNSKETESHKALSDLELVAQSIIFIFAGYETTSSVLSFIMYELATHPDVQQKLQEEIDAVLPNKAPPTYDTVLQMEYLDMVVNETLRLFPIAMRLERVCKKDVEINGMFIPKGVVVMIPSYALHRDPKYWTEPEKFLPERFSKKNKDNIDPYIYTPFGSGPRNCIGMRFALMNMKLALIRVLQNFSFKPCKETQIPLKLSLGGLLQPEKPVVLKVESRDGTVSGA
Sequence of CYP2C19 (P33261 whole entry): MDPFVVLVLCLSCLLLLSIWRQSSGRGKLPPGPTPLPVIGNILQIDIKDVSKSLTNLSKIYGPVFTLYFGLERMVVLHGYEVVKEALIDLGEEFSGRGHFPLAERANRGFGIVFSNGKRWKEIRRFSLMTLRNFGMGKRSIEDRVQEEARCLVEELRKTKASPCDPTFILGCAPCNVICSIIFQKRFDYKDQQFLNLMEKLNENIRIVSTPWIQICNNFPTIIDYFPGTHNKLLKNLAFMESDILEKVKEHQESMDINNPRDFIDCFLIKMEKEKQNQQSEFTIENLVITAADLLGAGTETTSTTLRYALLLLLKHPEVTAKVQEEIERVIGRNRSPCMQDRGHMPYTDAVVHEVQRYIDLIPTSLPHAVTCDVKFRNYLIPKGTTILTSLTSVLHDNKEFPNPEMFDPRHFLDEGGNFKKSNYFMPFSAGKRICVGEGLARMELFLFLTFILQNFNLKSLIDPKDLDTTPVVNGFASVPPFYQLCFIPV

SMILES	IC50 (CYP2C9) [µM]	also measured
O=C(c1cc(Cl)c(O)c(Cl)c1)N1CC[S+]([O-])c2ccccc21 (stereo not shown) [Example 9, (3,5-dichloro-4-hydroxyphenyl)-(1-oxo-2,3-dihydro-1H-1λ^4-benzo[1,4]thiazin-4-yl)-methanone]	39	IC50 (URAT1 [1]): 1 to 3 µM
Nc1c(Cl)cc(C(=O)N2CCOc3ccccc32)cc1Cl [Example 28, (4-amino-3,5-dichlorophenyl)-(2,3-dihydrobenzo[1,4]oxazin-4-yl)-methanone]	24	IC50 (URAT1 [1]): 0.1 to 1 µM
CC1Cc2ccccc2N1C(=O)c1cc(Cl)c(O)c(Cl)c1 (stereo not shown) [Example 76, (3,5-dichloro-4-hydroxyphenyl)-(2-methyl-2,3-dihydroindol-1-yl)-methanone]	28	IC50 (URAT1 [1]): 0.1 to 1 µM
CCS(=O)(=O)c1ccc2c(c1)N(C(=O)c1cc(Cl)c(O)c(Cl)c1)CCO2 [Example 84, (3,5-dichloro-4-hydroxyphenyl)-(6-ethanesulfonyl-2,3-dihydrobenzo[1,4]oxazin-4-yl)-methanone]	15	–
O=C(c1cc(Cl)c(O)c(Cl)c1)N1CCOc2ccc(C(F)(F)F)cc21 [Example 85, (3,5-dichloro-4-hydroxyphenyl)-(6-trifluoromethyl-2,3-dihydrobenzo[1,4]oxazin-4-yl)-methanone]	19	–
COc1c(Cl)cc(C(=O)N2CCOc3ccccc32)cc1Cl [Example 86, (3,5-dichloro-4-methoxyphenyl)-(2,3-dihydrobenzo[1,4]oxazin-4-yl)-methanone]	> 50	–
CC(=O)Oc1c(Cl)cc(C(=O)N2CCOc3ccccc32)cc1Cl [Example 87, 2,6-dichloro-4-(2,3-dihydrobenzo[1,4]oxazine-4-carbonyl)-phenyl acetate]	31	–
O=C(c1ccc(O)cc1)N1CCOc2ccccc21 [Example 88, (2,3-dihydrobenzo[1,4]oxazin-4-yl)-(4-hydroxyphenyl)-methanone]	> 50	–
O=C(c1cc(Cl)c(O)c(Cl)c1)N1CCOc2cccc(O)c21 [Example 89, (3,5-dichloro-4-hydroxyphenyl)-(5-hydroxy-2,3-dihydrobenzo[1,4]oxazin-4-yl)-methanone]	11	–
O=C(c1cc(Cl)c(O)c(Cl)c1)N1CCOc2c(O)cccc21 [Example 90, (3,5-dichloro-4-hydroxyphenyl)-(8-hydroxy-2,3-dihydrobenzo[1,4]oxazin-4-yl)-methanone]	21	–
CCOC(=O)COc1c(Cl)cc(C(=O)N2CCOc3ccccc32)cc1Cl [Example 91, ethyl [2,6-dichloro-4-(2,3-dihydrobenzo[1,4]oxazine-4-carbonyl)phenoxy]acetate]	> 50	–
O=C(O)COc1c(Cl)cc(C(=O)N2CCOc3ccccc32)cc1Cl [Example 92, [2,6-dichloro-4-(2,3-dihydrobenzo[1,4]oxazine-4-carbonyl)phenoxy]acetic acid]	> 50	–
CC1COc2ccccc2N1C(=O)c1cc(Cl)c(O)c(Cl)c1 (stereo not shown) [Example 93, (3,5-dichloro-4-hydroxyphenyl)-(3-methyl-2,3-dihydrobenzo[1,4]oxazin-4-yl)-methanone]	> 50	IC50 (URAT1 [1]): 0.1 to 1 µM
CS(=O)(=O)Nc1c(Cl)cc(C(=O)N2CCOc3ccccc32)cc1Cl [Example 94, N-[2,6-dichloro-4-(2,3-dihydrobenzo[1,4]oxazine-4-carbonyl)phenyl]methanesulfonamide]	6	IC50 (URAT1 [1]): 0.1 to 1 µM
O=C(c1cc(Cl)c(O)c(Cl)c1)N1CCCOc2ccccc21 [Example 95, (3,5-dichloro-4-hydroxyphenyl)-(7,8-dihydro-6H-5-oxa-9-azabenzocyclohepten-9-yl)-methanone]	> 50	–
CCc1oc2ccccc2c1C(=O)c1cc(Br)c(O)c(Br)c1 [benzbromarone]	–	inhibitory action on CYP3A4 (CYP3A4): strong inhibitory action; inhibitory action on CYP2C8 (CYP2C8): strong inhibitory action; inhibitory action on CYP2C19 (CYP2C19): strong inhibitory action; uric acid uptake via URAT1 (URAT1 [2]): inhibited
CCCN(CCC)S(=O)(=O)c1ccc(C(=O)O)cc1 [probenecid]	–	uric acid uptake via URAT1 (URAT1 [2]): inhibited
